Experimental data taken from patent EP4745137A1 (Gluetacs Therapeutics (Shanghai) Co., Ltd., priority 2023, dated 2025).
pIC50: −log10 of the molar value.

Experiments:
IKZF1 = target: T1, IKZF1 (Homo sapiens, UniProt Q13422+Q96SW2); assay: Western-blot assay of substrate protein degradation in hPBMCs, IKZF1; format: cell-based; details: 24 hours of compound treatment, compounds tested at 50 nM and 500 nM (concentration of the table not stated)
T1 construct: endogenous in cells; host or cells: hPBMCs (Milecell Biotechnologies)
T1 sequence (Q13422 whole entry): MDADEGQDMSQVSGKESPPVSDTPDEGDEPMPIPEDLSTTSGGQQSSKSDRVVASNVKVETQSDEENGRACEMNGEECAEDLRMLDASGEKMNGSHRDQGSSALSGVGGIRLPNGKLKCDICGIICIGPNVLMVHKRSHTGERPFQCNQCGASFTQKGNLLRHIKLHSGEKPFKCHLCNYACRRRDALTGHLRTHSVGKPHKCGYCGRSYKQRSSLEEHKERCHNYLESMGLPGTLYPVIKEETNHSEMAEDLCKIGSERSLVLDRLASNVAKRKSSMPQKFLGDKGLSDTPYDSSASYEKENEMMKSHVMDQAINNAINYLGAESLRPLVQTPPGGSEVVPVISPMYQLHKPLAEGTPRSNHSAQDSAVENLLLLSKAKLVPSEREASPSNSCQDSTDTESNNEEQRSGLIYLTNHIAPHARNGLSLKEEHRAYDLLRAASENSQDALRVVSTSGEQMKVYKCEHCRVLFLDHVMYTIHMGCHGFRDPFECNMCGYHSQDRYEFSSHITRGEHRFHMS
T1 sequence (Q96SW2 whole entry): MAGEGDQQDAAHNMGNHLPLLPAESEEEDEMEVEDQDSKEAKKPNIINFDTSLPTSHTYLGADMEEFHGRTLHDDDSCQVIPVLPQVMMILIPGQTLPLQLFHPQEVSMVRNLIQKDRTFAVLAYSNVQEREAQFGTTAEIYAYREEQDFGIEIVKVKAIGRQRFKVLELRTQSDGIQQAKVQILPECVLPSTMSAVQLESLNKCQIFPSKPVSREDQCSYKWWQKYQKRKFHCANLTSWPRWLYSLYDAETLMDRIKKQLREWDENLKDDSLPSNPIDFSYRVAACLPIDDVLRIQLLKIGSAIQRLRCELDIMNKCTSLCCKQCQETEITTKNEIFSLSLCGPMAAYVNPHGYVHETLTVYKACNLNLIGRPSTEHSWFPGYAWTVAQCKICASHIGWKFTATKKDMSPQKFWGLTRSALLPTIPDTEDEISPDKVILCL
T1 sequence (Q16531 whole entry partner): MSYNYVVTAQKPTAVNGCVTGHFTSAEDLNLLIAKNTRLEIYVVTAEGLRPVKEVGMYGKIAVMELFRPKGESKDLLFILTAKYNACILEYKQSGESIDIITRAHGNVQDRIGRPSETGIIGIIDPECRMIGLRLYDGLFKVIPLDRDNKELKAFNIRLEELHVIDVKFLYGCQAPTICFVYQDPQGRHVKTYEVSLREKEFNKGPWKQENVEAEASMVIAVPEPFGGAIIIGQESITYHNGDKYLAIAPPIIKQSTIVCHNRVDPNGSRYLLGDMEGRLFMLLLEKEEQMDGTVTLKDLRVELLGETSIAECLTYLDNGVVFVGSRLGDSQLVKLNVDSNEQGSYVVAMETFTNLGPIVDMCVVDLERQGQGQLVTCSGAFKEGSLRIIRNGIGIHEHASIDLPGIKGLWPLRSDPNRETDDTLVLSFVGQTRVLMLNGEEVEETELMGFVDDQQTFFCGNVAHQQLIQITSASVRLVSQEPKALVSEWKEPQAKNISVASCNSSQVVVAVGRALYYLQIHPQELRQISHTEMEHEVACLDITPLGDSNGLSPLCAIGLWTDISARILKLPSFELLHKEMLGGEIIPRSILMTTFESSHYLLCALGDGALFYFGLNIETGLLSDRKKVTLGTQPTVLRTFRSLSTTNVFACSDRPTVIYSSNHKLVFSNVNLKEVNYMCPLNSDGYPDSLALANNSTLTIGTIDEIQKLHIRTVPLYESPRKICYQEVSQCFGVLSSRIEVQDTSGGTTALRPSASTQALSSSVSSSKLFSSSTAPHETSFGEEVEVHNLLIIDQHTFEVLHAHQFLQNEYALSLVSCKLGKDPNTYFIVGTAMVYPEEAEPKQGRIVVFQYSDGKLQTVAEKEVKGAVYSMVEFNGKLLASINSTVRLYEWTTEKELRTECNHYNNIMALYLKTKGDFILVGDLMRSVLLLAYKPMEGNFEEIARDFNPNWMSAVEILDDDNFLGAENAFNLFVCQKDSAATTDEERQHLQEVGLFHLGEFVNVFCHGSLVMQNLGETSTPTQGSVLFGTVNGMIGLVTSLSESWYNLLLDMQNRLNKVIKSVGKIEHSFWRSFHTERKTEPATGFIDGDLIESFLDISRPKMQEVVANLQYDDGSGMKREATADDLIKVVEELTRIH

IKZF2 = target: T2, IKZF2 (Homo sapiens, UniProt Q96SW2+Q9UKS7); assay: Western-blot assay of substrate protein degradation in hPBMCs, IKZF2; format: cell-based; details: 24 hours of compound treatment, compounds tested at 50 nM and 500 nM (concentration of the table not stated)
T2 construct: endogenous in cells; host or cells: hPBMCs (Milecell Biotechnologies)
T2 sequence (Q9UKS7 whole entry): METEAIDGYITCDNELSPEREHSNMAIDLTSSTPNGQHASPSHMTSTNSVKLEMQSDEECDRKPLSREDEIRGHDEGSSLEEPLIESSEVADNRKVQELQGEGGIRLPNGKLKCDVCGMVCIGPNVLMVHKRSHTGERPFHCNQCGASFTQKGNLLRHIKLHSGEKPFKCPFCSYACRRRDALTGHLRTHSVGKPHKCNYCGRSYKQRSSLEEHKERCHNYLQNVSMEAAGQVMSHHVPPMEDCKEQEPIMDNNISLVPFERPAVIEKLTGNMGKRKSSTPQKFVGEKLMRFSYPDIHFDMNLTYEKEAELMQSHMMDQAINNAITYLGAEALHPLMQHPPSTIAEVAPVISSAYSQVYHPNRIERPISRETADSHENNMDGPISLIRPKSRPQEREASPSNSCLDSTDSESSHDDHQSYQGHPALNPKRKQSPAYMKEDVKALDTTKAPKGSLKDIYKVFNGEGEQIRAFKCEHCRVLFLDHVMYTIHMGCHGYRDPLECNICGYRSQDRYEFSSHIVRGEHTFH
T2 sequence (Q96SW2 whole entry): as the sequence (Q96SW2 whole entry) above
T2 sequence (Q16531 whole entry partner): as the sequence (Q16531 whole entry partner) above

CK1α = target: T3, CK1α (Homo sapiens, UniProt P48729+Q96SW2); assay: Western-blot assay of substrate protein degradation in hPBMCs, CK1α; format: cell-based; details: 24 hours of compound treatment, compounds tested at 50 nM and 500 nM (concentration of the table not stated)
T3 construct: endogenous in cells; host or cells: hPBMCs (Milecell Biotechnologies)

MM.1R = assay: Tumor cell proliferation inhibition (CellTiter-Meiluncell Luminescent Cell Viability Assay), MM.1R; details: Homo sapiens, 96 h, read-out: inhibitory activity (IC50, nM) against tumor cells proliferation, MM.1R
Experimental: (§1) The tumor cells used herein were cultured in a cell culture medium listed in table 2 at 37°C in an incubator with 5% CO2. Prior to experimentation, all cell lines used were correctly identified by STR profiling, and tested negative for mycoplasma contamination using a mycoplasma detection kit through routine screenings.
(§2) On the following day, the test compounds of the present disclosure were subjected to serial dilution. […] Subsequently, 0.5 µL of the test compound dilution was transferred into the 96-well plate containing the cells, with each well containing 100 µL of cell culture medium. […] Into the 96-well plate, the diluted test compounds and corresponding detection reagents were added, resulting in final test compound concentrations of 500 nM and 10 nM, respectively. The experimental procedure is described below using the diluted 2 µM test compound as an example.
(§3) After the cells were treated with the compounds of the present disclosure for a specified period (the treatment durations were shown in Table 3), the cell viability assay reagent was added to the culture medium according to the kit's instructions to determine cell viability. […] All controls were treated using the same procedure as the compounds of the present disclosure. The growth inhibition curves for the compounds of the present disclosure were plotted using Prism GraphPad software, and the IC50 values were calculated therefrom.

SR = assay: Tumor cell proliferation inhibition (CellTiter-Meiluncell Luminescent Cell Viability Assay), SR; details: Homo sapiens, 96 h, read-out: inhibitory activity (IC50, nM) against tumor cells proliferation, SR
CAL-62 = assay: Tumor cell proliferation inhibition (CellTiter-Meiluncell Luminescent Cell Viability Assay), CAL-62; details: Homo sapiens, CAL-62, 96 h, read-out: inhibitory activity (IC50, nM) against tumor cells proliferation, CAL-62
SW620 = assay: Tumor cell proliferation inhibition (CellTiter-Meiluncell Luminescent Cell Viability Assay), SW620; details: Homo sapiens, SW-620, 96 h, read-out: inhibitory activity (IC50, nM) against tumor cells proliferation, SW620
Experimental: as §1, §2, §3

Jurkat = assay: Tumor cell proliferation inhibition (CellTiter-Meiluncell Luminescent Cell Viability Assay), Jurkat; details: Homo sapiens, 96 h, read-out: inhibitory activity (IC50, nM) against tumor cells proliferation, Jurkat
Experimental: as §1, §2, §3

Vcap = assay: Tumor cell proliferation inhibition (CellTiter-Meiluncell Luminescent Cell Viability Assay), Vcap; details: Homo sapiens, 96 h, read-out: inhibitory activity (IC50, nM) against tumor cells proliferation, Vcap
[1] = target: T4, human Cereblon WT GST-tagged protein (Homo sapiens, UniProt Q96SW2); assay: CRBN-binding affinity by HTRF (CEREBLON BINDING kit); details: HTRF inhibitory activity, CEREBLON BINDING kit; read-out: HTRF IC50
T4 construct: purchased CISBIO 64BDCRBNPEH
T4 sequence (Q96SW2 whole entry): as the sequence (Q96SW2 whole entry) above

NCI-H1975 = assay: Tumor cell proliferation inhibition (CellTiter-Meiluncell Luminescent Cell Viability Assay), NCI-H1975; details: Homo sapiens, NCI-H1975, 96 h, read-out: inhibitory activity (IC50, nM) against tumor cells proliferation, H1975
MGC803 = assay: Tumor cell proliferation inhibition (CellTiter-Meiluncell Luminescent Cell Viability Assay), MGC803; details: Homo sapiens, MGC-803, 96 h, read-out: inhibitory activity (IC50, nM) against tumor cells proliferation, MGC803
Experimental: as §1
On the following day, the test compounds of the present disclosure were subjected to serial dilution. […] Subsequently, 0.5 µL of the test compound dilution was transferred into the 96-well plate containing the cells, with each well containing 100 µL of cell culture medium. […] Into the 96-well plate, the diluted test compounds and corresponding detection reagents were added, resulting in final test compound concentrations of 500 nM and 10 nM, respectively.
as §3

CCRF-CEM = assay: Tumor cell proliferation inhibition (CellTiter-Meiluncell Luminescent Cell Viability Assay), CCRF-CEM; details: Homo sapiens, 96 h, read-out: inhibitory activity (IC50, nM) against tumor cells proliferation, CCRF-CEM
[2] = tested on: Human acute T lymphocytic leukemia cells (Molt-4); assay: Tumor cell proliferation inhibition (CellTiter-Meiluncell Luminescent Cell Viability Assay), Molt-4; details: MOLT-4, 96 h, read-out: inhibitory activity (IC50, nM) against tumor cells proliferation, Molt 4
WEE1 = target: T5, WEE1 (Homo sapiens, UniProt P30291+Q96SW2); assay: Western-blot assay of substrate protein degradation in hPBMCs, WEE1; format: cell-based; details: 24 hours of compound treatment, compounds tested at 50 nM and 500 nM (concentration of the table not stated)
T5 construct: endogenous in cells; host or cells: hPBMCs (Milecell Biotechnologies)
T5 sequence (P30291 whole entry): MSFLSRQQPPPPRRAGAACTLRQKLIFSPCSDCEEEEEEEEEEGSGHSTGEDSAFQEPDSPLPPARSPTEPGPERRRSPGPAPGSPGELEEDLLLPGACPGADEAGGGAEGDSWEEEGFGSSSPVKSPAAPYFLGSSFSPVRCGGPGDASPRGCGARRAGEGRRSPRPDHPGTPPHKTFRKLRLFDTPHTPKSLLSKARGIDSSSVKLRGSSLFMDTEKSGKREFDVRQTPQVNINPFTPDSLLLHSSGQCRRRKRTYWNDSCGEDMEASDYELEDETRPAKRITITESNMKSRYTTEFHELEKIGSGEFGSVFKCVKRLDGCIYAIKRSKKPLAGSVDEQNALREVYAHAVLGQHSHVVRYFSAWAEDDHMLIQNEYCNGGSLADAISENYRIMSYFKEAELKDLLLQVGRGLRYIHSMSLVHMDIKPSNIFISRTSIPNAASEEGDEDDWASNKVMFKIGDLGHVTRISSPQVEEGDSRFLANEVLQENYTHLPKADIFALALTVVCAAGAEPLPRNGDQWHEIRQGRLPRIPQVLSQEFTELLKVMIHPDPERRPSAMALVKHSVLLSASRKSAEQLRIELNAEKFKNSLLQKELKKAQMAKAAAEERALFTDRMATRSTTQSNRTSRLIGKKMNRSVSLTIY
T5 sequence (Q96SW2 whole entry): as the sequence (Q96SW2 whole entry) above
T5 sequence (Q16531 whole entry partner): as the sequence (Q16531 whole entry partner) above

GSPT1 = target: T6, GSPT1 (Homo sapiens, UniProt P15170+Q96SW2); assay: Western-blot assay of substrate protein degradation in hPBMCs, GSPT1; format: cell-based; details: 24 hours of compound treatment, compounds tested at 50 nM and 500 nM (concentration of the table not stated)
T6 construct: endogenous in cells; host or cells: hPBMCs (Milecell Biotechnologies)
T6 sequence (P15170 whole entry): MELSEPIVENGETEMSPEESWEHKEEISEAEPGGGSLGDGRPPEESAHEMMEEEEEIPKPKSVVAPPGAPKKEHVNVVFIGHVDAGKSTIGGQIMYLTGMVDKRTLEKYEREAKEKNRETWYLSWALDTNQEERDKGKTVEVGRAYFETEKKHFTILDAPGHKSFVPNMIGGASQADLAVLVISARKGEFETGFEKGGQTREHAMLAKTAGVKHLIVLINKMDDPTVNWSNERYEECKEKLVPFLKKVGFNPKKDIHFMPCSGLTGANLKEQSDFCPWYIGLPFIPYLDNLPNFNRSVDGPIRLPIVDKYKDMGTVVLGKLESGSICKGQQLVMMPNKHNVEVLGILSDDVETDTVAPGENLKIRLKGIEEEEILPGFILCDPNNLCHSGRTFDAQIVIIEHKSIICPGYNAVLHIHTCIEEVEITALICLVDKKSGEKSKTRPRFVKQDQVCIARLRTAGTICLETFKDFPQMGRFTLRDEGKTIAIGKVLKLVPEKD
T6 sequence (Q96SW2 whole entry): as the sequence (Q96SW2 whole entry) above
T6 sequence (Q16531 whole entry partner): as the sequence (Q16531 whole entry partner) above

IKZF3 = target: T7, IKZF3 (Homo sapiens, UniProt Q96SW2+Q9UKT9); assay: Western-blot assay of substrate protein degradation in hPBMCs, IKZF3; format: cell-based; details: 24 hours of compound treatment, compounds tested at 50 nM and 500 nM (concentration of the table not stated)
T7 construct: endogenous in cells; host or cells: hPBMCs (Milecell Biotechnologies)
T7 sequence (Q9UKT9 whole entry): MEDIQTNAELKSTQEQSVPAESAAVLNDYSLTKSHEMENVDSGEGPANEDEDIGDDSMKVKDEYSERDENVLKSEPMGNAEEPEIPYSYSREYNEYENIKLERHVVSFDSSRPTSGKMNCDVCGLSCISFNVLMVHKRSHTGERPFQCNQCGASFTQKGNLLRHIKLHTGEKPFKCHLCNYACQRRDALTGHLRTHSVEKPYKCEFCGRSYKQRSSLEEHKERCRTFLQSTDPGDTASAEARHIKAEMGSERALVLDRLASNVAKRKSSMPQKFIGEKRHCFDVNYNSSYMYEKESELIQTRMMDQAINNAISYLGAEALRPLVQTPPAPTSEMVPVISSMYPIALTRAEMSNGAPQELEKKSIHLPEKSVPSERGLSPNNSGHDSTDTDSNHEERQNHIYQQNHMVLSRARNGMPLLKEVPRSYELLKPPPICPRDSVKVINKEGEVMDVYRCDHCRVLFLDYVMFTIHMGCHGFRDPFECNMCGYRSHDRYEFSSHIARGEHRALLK
T7 sequence (Q96SW2 whole entry): as the sequence (Q96SW2 whole entry) above
T7 sequence (Q16531 whole entry partner): as the sequence (Q16531 whole entry partner) above

TMD8 = assay: Tumor cell proliferation inhibition (CellTiter-Meiluncell Luminescent Cell Viability Assay), TMD8; details: Homo sapiens, TMD8, 96 h, read-out: inhibitory activity (IC50, nM) against tumor cells proliferation, TMD8
Experimental: as §1, §2, §3

[3] = tested on: Human breast cancer cells (MDA-MB-231); assay: Tumor cell proliferation inhibition (CellTiter-Meiluncell Luminescent Cell Viability Assay), MDA-MB-231; details: MDA-MB-231, 96 h, read-out: inhibitory activity (IC50, nM) against tumor cells proliferation, MDA-MB-231

SMILES	IKZF 1 substrate protein remaining % (IKZF1)	IKZF2 substrate protein remaining % (IKZF2)	CK1a substrate protein remaining % (CK1α)	IC50 (MM.1R) [nM]	IC50 (SR) [nM]	IC50 (CAL-62) [nM]	IC50 (SW620) [nM]	IC50 (Jurkat) [nM]	IC50 (Vcap) [nM]	pIC50 [1]	IC50 (NCI-H1975) [nM]	IC50 (MGC803) [nM]	IC50 (CCRF-CEM) [nM]	IC50 [2] [nM]	Weel substrate protein remaining % (WEE1)	GSPT1 substrate protein remaining % (GSPT1)	IKZF3 substrate protein remaining % (IKZF3)	IC50 (TMD8) [nM]	IC50 [3] [nM]
O=C1CCC(N2Cc3cc(CN4CCC(c5ccccc5Cl)CC4)ccc3C2=O)C(=O)N1 (centres unmarked) [GT-04468, 3-(5-((4-(2-chlorophenyl)piperidin-1-yl)methyl)-1-oxoisoindolin-2-yl)piperidine-2,6-dione]	A (0% ≤ substrate protein remaining % ≤ 80%)	A (0% ≤ substrate protein remaining % ≤ 80%)	A (0% ≤ substrate protein remaining % ≤ 80%)	10 to 50	500 to 1000	10 to 50	100 to 500	5 to 10	50 to 100	6.00 to 6.30	100 to 500	500 to 1000	5 to 10	5 to 10	A (0% ≤ substrate protein remaining % ≤ 80%)	A (0% ≤ substrate protein remaining % ≤ 80%)	A (0% ≤ substrate protein remaining % ≤ 80%)	–	–
O=C1CCC(N2Cc3cc(CN4CCC(c5noc6cc(F)ccc56)CC4)ccc3C2=O)C(=O)N1 (centres unmarked) [GT-04254, 3-(5-((4-(6-fluorobenzo[d]isoxazol-3-yl)piperidin-1-yl)methyl)-1-oxoisoindolin-2-yl)piperidine-2,6-dione]	A (0% ≤ substrate protein remaining % ≤ 80%)	A (0% ≤ substrate protein remaining % ≤ 80%)	A (0% ≤ substrate protein remaining % ≤ 80%)	–	–	10 to 50	10 to 50	10 to 50	10 to 50	6.00 to 6.30	–	100 to 500	5 to 10	–	A (0% ≤ substrate protein remaining % ≤ 80%)	A (0% ≤ substrate protein remaining % ≤ 80%)	A (0% ≤ substrate protein remaining % ≤ 80%)	100 to 500	–
O=C1CCC(N2Cc3cc(CN4CCN(c5cccc6sccc56)CC4)ccc3C2=O)C(=O)N1 (centres unmarked) [GT-04202, 3-(5-((4-(benzo[b]thiophen-4-yl)piperazin-1-yl)methyl)-1-oxoisoindolin-2-yl)piperidine-2,6-dione]	A (0% ≤ substrate protein remaining % ≤ 80%)	A (0% ≤ substrate protein remaining % ≤ 80%)	A (0% ≤ substrate protein remaining % ≤ 80%)	–	–	1 to 5	1 to 5	1 to 5	1 to 5	6.00 to 6.30	–	10 to 50	1 to 5	–	A (0% ≤ substrate protein remaining % ≤ 80%)	A (0% ≤ substrate protein remaining % ≤ 80%)	A (0% ≤ substrate protein remaining % ≤ 80%)	10 to 50	–
O=C1CCC(N2Cc3cc(CN4CCN(c5cccc(C(F)(F)F)n5)CC4)ccc3C2=O)C(=O)N1 (centres unmarked) [GT-04432, 3-(1-oxo-5-((4-(6-(trifluoromethyl)pyridin-2-yl)piperazin-1-yl)methyl)isoindolin-2-yl)piperidine-2,6-dione]	A (0% ≤ substrate protein remaining % ≤ 80%)	A (0% ≤ substrate protein remaining % ≤ 80%)	B (80%< substrate protein remaining %≤ 100%)	5 to 10	–	10 to 50	100 to 500	1 to 5	10 to 50	6.00 to 6.30	100 to 500	100 to 500	5 to 10	5 to 10	A (0% ≤ substrate protein remaining % ≤ 80%)	A (0% ≤ substrate protein remaining % ≤ 80%)	A (0% ≤ substrate protein remaining % ≤ 80%)	–	500 to 1000
O=C1CCC(N2Cc3cc(CN4CCN(c5cccc(Cl)c5Cl)CC4)ccc3C2=O)C(=O)N1 (centres unmarked) [GT-04201, 3-(5-((4-(2,3-dichlorophenyl)piperazin-1-yl)methyl)-1-oxoisoindolin-2-yl)piperidine-2,6-dione]	B (80%< substrate protein remaining %≤ 100%)	A (0% ≤ substrate protein remaining % ≤ 80%)	A (0% ≤ substrate protein remaining % ≤ 80%)	–	–	1 to 5	50 to 100	1 to 5	5 to 10	5.82 to 6.00	–	10 to 50	1 to 5	–	A (0% ≤ substrate protein remaining % ≤ 80%)	A (0% ≤ substrate protein remaining % ≤ 80%)	B (80%< substrate protein remaining %≤ 100%)	10 to 50	–
Cc1ccc(Sc2ccccc2N2CCN(Cc3ccc4c(c3)CN(C3CCC(=O)NC3=O)C4=O)CC2)c(C)c1 (centres unmarked) [GT-04203, 3-(5-((4-(2-((2,4-dimethylphenyl)thio)phenyl)piperazin-1-yl)methyl)-1-oxoisoindolin-2-yl)piperidine-2,6-dione]	A (0% ≤ substrate protein remaining % ≤ 80%)	A (0% ≤ substrate protein remaining % ≤ 80%)	A (0% ≤ substrate protein remaining % ≤ 80%)	–	–	5 to 10	10 to 50	5 to 10	5 to 10	6.00 to 6.30	–	100 to 500	5 to 10	–	A (0% ≤ substrate protein remaining % ≤ 80%)	A (0% ≤ substrate protein remaining % ≤ 80%)	A (0% ≤ substrate protein remaining % ≤ 80%)	10 to 50	–
Cc1ccsc1C1=CCN(Cc2ccc3c(c2)CN(C2CCC(=O)NC2=O)C3=O)CC1 (centres unmarked) [GT-04495, 3-(5-((4-(3-methylthiophen-2-yl)-3,6-dihydropyridin-1(2H)-yl)methyl)-1-oxoisoindolin-2-yl)piperidine-2,6-dione]	B (80%< substrate protein remaining %≤ 100%)	A (0% ≤ substrate protein remaining % ≤ 80%)	A (0% ≤ substrate protein remaining % ≤ 80%)	–	1 to 5	< 1	1 to 5	< 1	1 to 5	> 6.30	1 to 5	10 to 50	< 1	< 1	B (80%< substrate protein remaining %≤ 100%)	A (0% ≤ substrate protein remaining % ≤ 80%)	B (80%< substrate protein remaining %≤ 100%)	–	1 to 5
